Experiment [1] concerns Bc 1–5 (RNA, riboswitch) GAUGUAACUGAAUGAAAUGGUGAAGGACGGGUCCACUUAUAACGAGAAGCGGAGGGACUGGCCCAAUGAAGCUUCAGCAACCAUUCAUUGCGAUGAAAAGGUGCUAAAUCCAGCAAAGGGAACUUUGGCAGAUAAGUUGUUGAGUAGAGUGUGAGCUCCGUAACUAGUUACAUC
The experiment can be described thus: fluorescence titration. The conditions noted are these: 125 mM KCl, 10 mM MgCl2; 40 mM HEPES pH 7.5, 37 °C, 100 nM RNA, 10 µM DFHBI.

For experiment [2], the system named is Bs 4-4 (RNA, riboswitch) GAUGUAACUGAAUGAAAUGGUGAAGGACGGGUCCACUUGGAAGAUAAGAAGCAAUUCUUAUCAAGAGAAGCAGAGGGACUGGCCCGACGAAGCUUCAGCAACCGGUGUAAUGGCGAUCAGCCAUGACCAAGGUGCUAAAUCCAGCAAGUUGUUGAGUAGAGUGUGAGCUCCGUAACUAGUUACAUC
Briefly: fluorescence titration. Conditions: 125 mM KCl, 10 mM MgCl2; 40 mM HEPES pH 7.5, 37 °C, 100 nM RNA, 10 µM DFHBI.

Our source for the KD and dissociation constant values is article PMC6051913 (2018).

With `C[S+](CC[C@H](N)C(=O)O)C[C@H]1O[C@@H](n2cnc3c(N)ncnc32)[C@H](O)[C@@H]1O` (some centres unmarked), the KD in experiment [1] is on record as ~ 1.7 µM. Besides, the dissociation constant in experiment [2] turned out to be 1.0 µM.
